Patent US8663621B2, “Identification and synthesis of a male-produced pheromone for the neotropical root weevil Diaperpes abbreviatus (coleoptera: curculionidae)” (The United States of America, as Represented by the …, priority 2012, dated 2014)
“Also recorded” adds a separate entry of the source.

Legend:
[1] = tested on: Diaprepes abbreviatus antenna (male and female); assay: gas chromatograph-coupled electroantennogram detection (GC-EAD) of antennal response; conditions: for antennal response (GC-EAD) to peaks of headspace extract: hexane extract of headspace volatiles from adult males and citrus leaves (FIG. 2); for antennal response (GC-EAD): male and female antennae, 50 ng linalool and 100 ng synthetic compound in hexane (FIG. 4)
From the text: In a first assay employed to find an attractive chemical of insect origin, a gas chromatograph-coupled electroantennogram detection (GC-EAD) system was used to analyze male aeration samples. This system included an Agilent 7890A GC equipped with a split/splitless injector, an HP-1 capillary column (approximately 30 m×0.32 mm×0.25 μm, Agilent Technologies, Inc., Santa Clara, Calif., USA), a post column glass Y-tube (Supelco, Bellefonte, Pa., USA) splitter for dividing column effluent in an approximately 1:1 ratio between a flame ionization detector (FID) and a heated (200° C.) EAD transfer line. Two lengths of deactivated column (approximately 0.32 mm ID) were used to carry effluent to the FID and EAD port after the split. At the start of GC-EAD runs, the GC oven temperature was held at about 35° C. for 3 minutes and then increased to about 260° C. at a rate of about 15° C./min and held at about 260° C. for about 10 min. Injector and FID temperatures were set at about 220° C. and about 300° C., respectively. Splitless injection was used with helium as the carrier gas at a flow rate of about 2.3 ml/min. A heated transfer line emptied into a charcoal-filtered, humidified air stream (about 200 ml/min at about 30 cm/sec) that carried the effluent over an antennal preparation. The antennal preparation can be made by plucking the antenna from either a male or female insect (grasping it firmly at the base of the antenna near the head with fine forceps) and placing the antenna between two metal electrodes of a Universal EAG probe, to which small amounts of salt-free electrode gel (Spectra 360, Parker Laboratories, Fairfield, N.J., USA) had been applied. The probe was connected to a type PRG-2 amplifier (Universal EAG probe, Syntech, Hilversum, The Netherlands). The humidified air stream was directed to pass over the antennal preparation generating a signal. […] […] […] […] Antennae from male and female D. abbreviatus were used as detectors to confirm antennal response to the synthetic compound.

[2] = tested on: Diaprepes abbreviatus antenna (male and female); conditions: used as co-injected control for antenna viability; cited from earlier work
[3] = tested on: Diaprepes abbreviatus adults; assay: two-choice olfactometer behavioral bioassay; type: in vivo; conditions: for Number choosing A (air) / Number choosing B (odor source): A: air vs B: odor source; for No choice (number): moved to but remained in central arena; for No response (number): remained in inlet
Description: Behavioral response to the pheromone was tested in an olfactometer (Model 4C, ARS, Inc., Micanopy, Fla. USA) wherein individual weevils (starved for about 24 h) were placed in a glass inlet and allowed to walk upwards into the center of an arena with a balanced, filtered and humidified airflow from two arms oriented at 180° to each other and outfitted with glass reservoirs containing an odor source or blank. The assays were conducted in the dark between about 9 AM and 2 PM; each run was terminated when the weevil moved into one of the glass receptacles or when about 15 min had elapsed. Assays were run in the dark because of a strong phototropic response in this insect (Lapointe and Hall 2009). Weevil position was scored as no-response (remaining in the inlet), no-choice (moving to but remaining in the central arena) or choosing one of the two arms. Responses of unmated approximately 4 to 6-week-old males and females were recorded to various odor sources: fresh young citrus leaves (flush), flush fed upon for about 24 hr by male D. abbreviatus, approximately 30 μg of methyl (E)-3-(2-hydroxyethyl)-4-methyl-2-pentenoate in approximately 10:1 hexanes:ethyl acetate pipetted onto a glass slide, and a clean glass slide. All glass components of the olfactometer were thoroughly washed between runs with warm soap and water, rinsed with methanol and air-dried. Between replications of a given treatment, the arms of the olfactometer used for that treatment were switched to control for bias in the apparatus. The number of weevils choosing a treatment arm was compared with the control arm (clean air) by the G-test (Sokal and Rohlf 1994).

[4] = stability of the pheromone (lactonization; acid, heat, storage); type: physicochemical; conditions: for stability in acidic medium (lactonization to 2): acid-catalyzed THP removal, CDCl3 with residual acidity
Description: At the core of the chosen synthetic route lies a stereoselective carbocupration of α,β-acetylenic esters that was exclusively cis-stereospecific when the reaction was conducted in THF at low temperatures (Corey and Katzenellenbogen 1969, Bourque et al. 1999, Drew et al. 1999). However, a conjugate addition of a heterocuprate, formed in situ from isopropylmagnesium bromide and copper(I) iodide in the presence of N,N,N,N'-tetramethylethylenediamine ([…] et al. 1984), to the acetylenic ester (FIG. 1) proceeded with some loss of stereoselectivity resulting in a mixture of E and Z olefinic esters in an approximately 92:8 ratio. During acid-catalyzed removal of the tetrahydropyranyl (THP) protecting group, the ratio of 1E and 1Z dropped to approximately 86:14 and a considerable amount of lactone 2 was formed, thus indicating instability of the putative pheromone in acidic medium.

## CC(C)=CCC/C(C)=C/CO (single isomer, unassigned) [geraniol, reference compound]
[1]
  antennal response (GC-EAD) to peaks of headspace extract: positive antennal responses

## C=CC(C)(O)CCC=C(C)C (single isomer, unassigned) [linalool, reference compound]
[1]
  antennal response (GC-EAD) to peaks of headspace extract: positive antennal responses
  antennal response (GC-EAD): Both male and female antennae responded
[2]
  antennal response, previously determined: consistent antennal response

## CC(C)=CCC/C(C)=C/C=O [geranial, reference compound]
[1]
  antennal response (GC-EAD) to peaks of headspace extract: positive antennal responses

## CC(C)C1=CC(=O)OCC1 [lactone]
[1]
  antennal response (GC-EAD): No antennal response; also recorded: Neither responded

## COC(=O)/C=C(\CCO)C(C)C [methyl (E)-3-(2-hydroxyethyl)-4-methyl-2-pentenoate]
[1]
  antennal response (GC-EAD) to peaks of headspace extract: elicit a response from male and female antennae
  antennal response (GC-EAD): Both male and female antennae responded
[3]; female weevils
  Number choosing A (air): 17
  Number choosing B (odor source): 48
  No choice (number): 17
  No response (number): 71
[3]; female weevils, α=0.05, G-test
  preference for odor source versus clean air (in words): consistently moved upwind more often
[3]; female weevils, α=0.05, G-test, listed as synthetic pheromone
  preference for odor source versus clean air (in words): more often as compared to clean air
[3]; male weevils
  Number choosing A (air): 30
  Number choosing B (odor source): 34
  No choice (number): 20
  No response (number): 69
[3]; male weevils, listed as pheromone
  preference for odor source versus clean air (in words): did not show a clear preference
[3]; male weevils, listed as synthetic pheromone
  preference for odor source versus clean air (in words): no clear preference
[4]; listed as 1E
  stability in acidic medium (lactonization to 2): noticeable cyclization of 1E to 2
[4]; listed as putative pheromone
  stability in acidic medium (lactonization to 2): instability
[4]; preparative GC with conventional injection port
  thermal stability: thermal instability
[4]; purified sample, up to 25° C. in aprotic solvents (benzene, hexane, ethyl acetate)
  storage stability: stores indefinitely

## COC(=O)/C=C(/CCO)C(C)C [methyl (Z)-3-(2-hydroxyethyl)-4-methyl-2-pentenoate]
[1]
  antennal response (GC-EAD): inactive
[1]; listed as Z isomer
  antennal response (GC-EAD): No antennal response; also recorded: Neither responded
